# From patent US9416141B2 (University of Washington through its Center for …, priority 2012, dated 2016)
# Counter-ions that a name gives are not always drawn.
# System: hair cells
# Test: Hair cell toxicity assay in zebrafish (neomycin-induced hair cell death, DASPEI staining of neuromasts)
# Assay type: in vivo
# Details: Danio rerio; for Emax at 25 µM: maximum observed @ 25 μM test compound; for EC50: zebrafish larvae 5-7 dpf, 1 h pre-treatment, then 200 micromolar neomycin + test compound 30 min, read-out: HC50 (concentration that would produce 50% hair cell survival); for Emax at 2.8 µM: maximum observed @ 2.8 μM test compound; for Emax at 8.3 µM: maximum observed @ 8.3 μM test compound
# Procedure: Zebrafish are bred and newly fertilized embryos are collected the week prior and raised at 28.5° C. in petri dishes containing embryo medium. Newly hatched free-swimming larvae are fed paramecium and dry fish food at 4 days post fertilization (dpf) with lights on. For treatment, fish 5-7 dpf are transferred to cell culture baskets and place within a well of a 6-well plate containing 7 milliliters of 1× embryo medium. Typically, tests are done with ten fish per basket but work well with up to 50 fish. All treatment and wash volumes are 7 milliliters. • 1. Fish are pre-treated with test compound for 1 hour. […] Treat with 200 micromolar neomycin (neomycin sulfate, Sigma, St. Louis, Mo., catalog #N1142)+test compound for 30 minutes. • 3. Rinse fish briefly 4 times in embryo medium and add 700 μl of 0.05% DASPEI (2-{4-(dimethylamino)styryl}-N-ethylpyridinium iodide, Molecular Probes, Eugene, Oreg.) and allowed to stain for 15 minutes. • 4. Rinse twice in embryo medium and add 350 μl MS222 (0.55 ug/ml final concentration, 3-aminobenzoic acid ethyl ester, methansulfoneate salt, Sigma, St. Louis, Mo.) to anesthetize. • 5. View with epifluorescence dissecting microscope equipped with a DAPSEI filter set (excitation […], Chroma Technologies, Brattleboro, Vt.). For assessment of initial dose response curves, fish are transferred to wide depression slide with wide-bore pipette. The DASPEI staining of ten neuromasts (SO1, SO2, IO1, IO2, IO3, IO4, M2, MI1, MI2 and O2) on one side of an animal are evaluated. Each neuromast is scored for presence of DASPEI staining (score=2), reduced DASPEI staining (score=1) or absence of DASPEI staining (score=0). Total scores for an animal are tabulated, to give a composite score that can range from 0 to 20. Average scores and standard deviations are calculated for animals in each treatment group. Scores are normalized to control group (vehicle only, no drug, no neomycin) and expressed as % hair cell survival. HCmax is the maximum protection (hair cell survival) observed. • 6. If at least 50% hair cells survive, the HC50 (concentration that would produce 50% hair cell survival) is calculated as a linear extrapolation from the nearest concentrations of protective drug that produce hair cell survival below and above 50%. If less than 50% hair cells survive, the HC50 is not determined. 1× embryo media (standard lab EM): • 1 mM MgSO4, • 0.15 mM KH2PO4, • 0.05 mM Na2HPO4, • 1 mM CaCl2, • 0.5 mM KCl • 15 mM NaCl • 0.7 mM NaHCO3
# [1] = 200 micromolar neomycin, read-out: Max HC Protection (HCmax, % hair cell survival)
smiles,measurement,setting,value
"C[N+]12CCCCC1c1sc(NC(=O)Nc3ccc(Cl)cc3)c(C(N)=O)c1CC2 (racemic) [Example 178, (+/−)-3-Carbamoyl-2-[3-(4-chlorophenyl)ureido]-6-methyl-4,5,6,7,8,9,10,10a-octahydrothieno[2,3-a]quinolizin-6-ium chloride]",Emax at 25 µM,[1],102%
same,EC50,,1000 to 10000 nM
"CC(C)NC(=O)CCC[N+]1(C)CCc2c(sc(NC(=O)Nc3ccc(Cl)cc3)c2C(N)=O)C1 (stereo not drawn) [Example 166, 3-Carbamoyl-2-[3-(4-chlorophenyl)ureido]-6-[4-(isopropylamino)-4-oxobutyl]-6-methyl-4,5,6,7-tetrahydrothieno[2,3-c]pyridin-6-ium trifluoroacetate]",Emax at 2.8 µM,[1],63%
same,EC50,,1000 to 10000 nM
"C[N+]12CCCCC1Cc1c(sc(NC(=O)Nc3ccc(Cl)cc3)c1C(N)=O)C2 (racemic) [Example 177, (+/−)-3-Carbamoyl-2-[3-(4-chlorophenyl)ureido]-9-methyl-4,4a,5,6,7,8,9,10-octahydrothieno[3,2-b]quinolizin-9-ium iodide]",Emax at 25 µM,[1],97%
same,EC50,,1000 to 10000 nM
"CC(C)C[N+]1(C)CCc2c(sc(NC(=O)Nc3ccc(Cl)cc3)c2C(N)=O)C1 (stereo not drawn) [Example 135, 3-carbamoyl-2-[3-(4-chlorophenyl)ureido]-6-isobutyl-6-methyl-4,5,6,7-tetrahydrothieno[2,3-c]pyridin-6-ium iodide]",Emax at 25 µM,[1],107%
same,EC50,,< 1000 nM
"CCN1CCc2c(sc(NC(=O)Nc3ccc(Cl)cc3)c2C(=O)NCCN2CCOCC2)C1 [Example 100, 2-[3-(4-Chlorophenyl)ureido]-6-ethyl-N-(2-morpholinoethyl)-4,5,6,7-tetrahydrothieno[2,3-c]pyridine-3-carboxamide dihydrochloride]",Emax at 25 µM,[1],59%
same,EC50,,1000 to 10000 nM
"NC(=O)c1c(NC(=O)Nc2ccc(Cl)c3ccccc23)sc2c1CCN(CC1CCC1)C2 [Example 40, 2-[3-(4-Chloronaphthalen-1-yl)ureido]-6-(cyclobutylmethyl)-4,5,6,7-tetrahydrothieno[2,3-c]pyridine-3-carboxamide hydrochloride]",Emax at 8.3 µM,[1],62%
same,EC50,,1000 to 10000 nM
"CC(C1CCC1)[N+]1(C)CCc2c(sc(NC(=O)Nc3ccc(Cl)cc3)c2C(N)=O)C1 (racemic) [Example 203, (+/−)-3-Carbamoyl-2-[3-(4-chlorophenyl)ureido]-6-(1-cyclobutylethyl)-6-methyl-4,5,6,7-tetrahydrothieno[2,3-c]pyridin-6-ium chloride]",Emax at 2.8 µM,[1],75%
same,EC50,,< 1000 nM
"CC(C)NC(=O)CCN1CCc2c(sc(NC(=O)Nc3ccc(Cl)cc3)c2C(N)=O)C1 [Example 57, 2-[3-(4-Chlorophenyl)ureido]-6-[3-(isopropylamino)-3-oxopropyl]-4,5,6,7-tetrahydrothieno[2,3-c]pyridine-3-carboxamide hydrochloride]",Emax at 2.8 µM,[1],50%
same,EC50,,1000 to 10000 nM
"NC(=O)c1c(NC(=O)Nc2ccc(Cl)cc2)sc2c1CCN(CCCNC(=O)CCc1ccc(C(F)(F)F)cc1)C2 [Example 218, 2-{[(4-chlorophenyl)carbamoyl]amino}-6-(3-{3-[4-(trifluoromethyl)phenyl]propanamido}propyl)-4H,5H,6H,7H-thieno[2,3-c]pyridine-3-carboxamide]",Emax at 2.8 µM,[1],103%
same,EC50,,< 1000 nM
"C[N+]1(CC(F)(F)F)CCc2c(sc(NC(=O)Nc3ccc(Cl)cc3)c2C(N)=O)C1 (stereo not drawn) [Example 192, 3-Carbamoyl-2-[3-(4-chlorophenyl)ureido]-6-methyl-6-(2,2,2-trifluoroethyl)-4,5,6,7-tetrahydrothieno[2,3-c]pyridin-6-ium iodide]",Emax at 25 µM,[1],88%
same,EC50,,< 1000 nM
"CCN1CCc2c(sc(NC(=O)Nc3ccc(Cl)cc3)c2-c2nnco2)C1 [Example 104, 1-(4-chlorophenyl)-3-[6-ethyl-3-(1,3,4-oxadiazol-2-yl)-4,5,6,7-tetrahydrothieno[2,3-c]pyridin-2-yl]urea hydrochloride]",Emax at 25 µM,[1],0%
"C[N+](C)(C)C1CCc2c(sc(NC(=O)Nc3ccc(Cl)cc3)c2C(N)=O)C1 (stereo not drawn) [Example 169, 3-Carbamoyl-2-[3-(4-chlorophenyl)ureido]-N,N,N-trimethyl-4,5,6,7-tetrahydrobenzo[b]thiophen-6-aminium iodide]",Emax at 25 µM,[1],101%
same,EC50,,1000 to 10000 nM
"CC(C)CN1CCc2c(sc(NC(=O)Nc3ccc(Cl)cc3)c2C(N)=O)C1 [Example 26, 2-[3-(4-Chlorophenyl)ureido]-6-isobutyl-4,5,6,7-tetrahydrothieno[2,3-c]pyridine-3-carboxamide hydrochloride]",Emax at 8.3 µM,[1],68%
same,EC50,,1000 to 10000 nM
"CCN1CCc2c(sc(NC(=O)Nc3ccc(Cl)cc3)c2C(=O)NCc2cccnc2)C1 [Example 98, 2-[3-(4-Chlorophenyl)ureido]-6-ethyl-N-(pyridin-3-ylmethyl)-4,5,6,7-tetrahydrothieno[2,3-c]pyridine-3-carboxamide dihydrochloride]",Emax at 25 µM,[1],52%
same,EC50,,> 10000 nM
"CCN1Cc2sc(NC(=O)Nc3ccc(Cl)cc3)c(C(N)=O)c2C1 [Example 28, 2-[3-(4-Chlorophenyl)ureido]-5-ethyl-5,6-dihydro-4H-thieno[2,3-c]pyrrole-3-carboxamide hydrochloride]",Emax at 8.3 µM,[1],58%
same,EC50,,1000 to 10000 nM
"NC(=O)c1c(NC(=O)Nc2ccc(Cl)cc2)sc2c1CCC(N1CCC1)C2 (stereo not drawn) [Example 43, 6-(Azetidin-1-yl)-2-[3-(4-chlorophenyl)ureido]-4,5,6,7-tetrahydrobenzo[b]thiophene-3-carboxamide hydrochloride]",Emax at 25 µM,[1],93%
same,EC50,,1000 to 10000 nM
"C[N+]1(CC2CCCC2)CCc2c(sc(NC(=O)Nc3ccc(Cl)cc3)c2C(N)=O)C1 (stereo not drawn) [Example 153, 3-Carbamoyl-2-[3-(4-chlorophenyl)ureido]-6-(cyclopentylmethyl)-6-methyl-4,5,6,7-tetrahydrothieno[2,3-c]pyridin-6-ium iodide]",Emax at 8.3 µM,[1],98%
same,EC50,,< 1000 nM
"NC(=O)c1c(NC(=O)Nc2ccc(Cl)cc2)sc2c1CCN(CCCNC(=O)CCc1c[nH]c3ccccc13)C2 [Example 209, 2-{[(4-chlorophenyl)carbamoyl]amino}-6-{3-[3-(1H-indol-3-yl)propanamido]propyl}-4H,5H,6H,7H-thieno[2,3-c]pyridine-3-carboxamide]",Emax at 2.8 µM,[1],98%
same,EC50,,< 1000 nM
"NC(=O)c1c(NC(=O)Nc2ccc(Cl)cc2)sc2c1CCN(CC1CC1)C2 [Example 1, 2-[3-(4-chlorophenyl)ureido]-6-(cyclopropylmethyl)-4,5,6,7-tetrahydrothieno[2,3-c]pyridine-3-carboxamide hydrochloride]",Emax at 25 µM,[1],92%
same,EC50,,1000 to 10000 nM
"CC(C)OC(=O)CCN1CCc2c(sc(NC(=O)Nc3ccc(Cl)cc3)c2C(N)=O)C1 [Example 54, Isopropyl 3-{3-carbamoyl-2-[3-(4-chlorophenyl)ureido]-4,5-dihydrothieno[2,3-c]pyridin-6(7H)-yl}propanoate hydrochloride]",Emax at 25 µM,[1],58%
same,EC50,,1000 to 10000 nM
"CCOC(=O)CC[N+]1(C)CCc2c(sc(NC(=O)Nc3ccc(Cl)cc3)c2C(N)=O)C1 (stereo not drawn) [Example 160, 3-Carbamoyl-2-[3-(4-chlorophenyl)ureido]-6-(3-ethoxy-3-oxopropyl)-6-methyl-4,5,6,7-tetrahydrothieno[2,3-c]pyridin-6-ium chloride iodide]",Emax at 2.8 µM,[1],70%
same,EC50,,1000 to 10000 nM
"CC(C)(C)OC(=O)CCCN1CCc2c(sc(NC(=O)Nc3ccc(Cl)cc3)c2C(N)=O)C1 [Example 14, tert-Butyl 4-{3-carbamoyl-2-[3-(4-chlorophenyl)ureido]-4,5-dihydrothieno[2,3-c]pyridin-6(7H)-yl}butanoate]",Emax at 8.3 µM,[1],83%
same,EC50,,< 1000 nM
"CCN1CCc2c(sc(NC(=O)Nc3ccc(CC(=O)O)cc3)c2C(N)=O)C1 [Example 33, 2-{4-[3-(3-Carbamoyl-6-ethyl-4,5,6,7-tetrahydrothieno[2,3-c]pyridin-2-yl)ureido]phenyl}acetic acid trifluoroacetate]",Emax at 0.93 µM,"maximum observed @ 0.93 μM test compound, 200 micromolar neomycin, read-out: Max HC Protection (HCmax, % hair cell survival)",9%
"NC(=O)c1c(NC(=O)Nc2ccc(Cl)cc2)sc2c1CCN(CCCC(=O)O)C2 [Example 13, 4-{3-Carbamoyl-2-[3-(4-chlorophenyl)ureido]-4,5-dihydrothieno[2,3-c]pyridin-6(7H)-yl}butanoic acid hydrochloride]",Emax at 8.3 µM,[1],17%
